Test results as given in BigSolDB 2.1.

Brc1sc(Br)c(Br)c1Br
solubility (mole fraction)
Conditions | in THF | in chloroform | in ethanol | in ethyl acetate | in ethyl formate | in methanol | in n-butanol | in n-propanol | in toluene
278.05 K | 0.0405 | 0.02 | – | 0.00809 | 0.00389 | – | 0.00267 | – | 0.027
281.25 K | 0.0436 | 0.0229 | 0.00149 | 0.00924 | 0.00451 | 0.000395 | 0.00295 | 0.00219 | 0.0314
286.15 K | 0.0469 | 0.0269 | 0.00165 | 0.0109 | 0.00546 | 0.000465 | 0.00369 | 0.00256 | 0.0358
290.15 K | 0.0511 | 0.0302 | 0.0018 | 0.0124 | 0.00632 | 0.000517 | 0.00433 | 0.00287 | 0.04
293.15 K | 0.0538 | 0.0334 | 0.002 | 0.0137 | 0.00705 | 0.000567 | 0.0048 | 0.00319 | 0.044
297.15 K | 0.0572 | 0.039 | 0.00221 | 0.0154 | 0.00809 | 0.000646 | 0.0054 | 0.00364 | 0.0486
302.15 K | 0.0625 | 0.0455 | 0.00267 | 0.0183 | 0.00969 | 0.00076 | 0.00636 | 0.00433 | 0.0554
307.15 K | 0.0685 | 0.0536 | 0.0031 | 0.0216 | 0.0118 | 0.000896 | 0.0077 | 0.00514 | 0.0626
311.65 K | 0.0738 | 0.0629 | 0.00356 | 0.0249 | 0.0138 | 0.00103 | 0.00895 | 0.00584 | 0.0713
315.65 K | 0.0788 | 0.0687 | 0.00404 | 0.0279 | 0.0154 | 0.0012 | 0.0102 | 0.0067 | 0.0756
320.15 K | 0.0843 | 0.0781 | 0.00475 | 0.0326 | 0.0174 | 0.00144 | 0.0118 | 0.00812 | 0.0834
325.15 K | – | – | 0.00566 | – | – | 0.00169 | – | 0.00965 | –
